In publication PMC7937589 (Drugs in R&D, 2020):

What was measured:
solid tumors = test: Antitumor activity, overall response by RECIST v1.1; type: in vivo, human; settings: for Partial response rate: across all treatment cycles
[1] = Plasma and urine pharmacokinetics of ASP3026; type: in vivo, human; settings: for Tmax: human, plasma, oral
[2] = system: advanced solid malignancies; settings: US study, patients with ALK-positive tumors, especially NSCLC; cited from earlier work
[3] = system: Japanese patients with solid tumors; type: in vivo, human
[4] = Japanese patients, oral once daily

SMILES: COc1cc(N2CCC(N3CCN(C)CC3)CC2)ccc1Nc1ncnc(Nc2ccccc2S(=O)(=O)C(C)C)n1 [ASP3026]
- Partial response (solid tumors; Cycle 1, 200 mg daily, escalation (n = 3) and expansion (n = 6) cohorts): none of the patients
- Patients with stable disease (solid tumors; Cycle 1, 200 mg daily, escalation cohort (n = 3)): three
- Patients with stable disease (solid tumors; Cycle 1, 200 mg daily, expansion cohort (n = 6)): three
- Partial response rate (solid tumors; 75-mg dose group (1/3)): 33.3%
- Partial response rate (solid tumors; 125-mg dose group (1/4)): 25.0%
- Dose dependence of median Cmax and AUC24h ([1]; 25 mg to 325 mg, Day 1 and Day 28, escalation cohort): increased in a dose-dependent manner
- Tmax ([1]; Mean tmax across the dose groups, Day 1): 2.12 to 4.52 h
- Tmax ([1]; Mean tmax across the dose groups, Day 28): 2.48 to 3.75 h
- Tmax ([1]; Median tmax across the dose groups, Day 1): 1.97 to 3.97 h
- Tmax ([1]; Median tmax across the dose groups, Day 28): 2.48 to 3 h
- Steady state achieved ([1]; once daily oral dosing): ≤ 8 days
- Patients achieving partial response (PR) [2]: Half of the patients
- Patients with dose-limiting toxicity (DLT) ([3]; 325 mg daily, Cycle 1, six patients evaluated): Three
- Maximum tolerated dose (MTD) [3, 4]: 200 mg
- Recommended phase II dose (RP2D) [3, 4]: 200 mg
- Total incidence of Grade 4 TEAEs ([3]; all cohorts (1/29)): 3.4%
- Total incidence of Grade 5 TEAEs ([3]; all cohorts (1/29)): 3.4%
- Patients reporting eye disorders ([3]; all cohorts (4/29)): 13.8%
- Total incidence of Grade 1 TEAEs ([3]; all cohorts (6/29)): 20.7%
- Total incidence of Grade 2 TEAEs ([3]; all cohorts (8/29)): 27.6%
- Total incidence of Grade 3 TEAEs ([3]; all cohorts (13/29)): 44.8%
- Overall incidence of drug-related AEs ([3]; all cohorts (24/29)): 82.8%
- Incidence of TEAEs ([3]; all treatment groups (29/29)): 100%
- Dose-limiting toxicity (DLT) ([3]; daily dose from 25 mg to 200 mg, Cycle 1): No DLT was observed
